Patent US5607850A, “Enzyme from microbial source: phthalyl amidase” (Eli Lilly and Company, priority 1995, dated 1997)
Where two headings read alike, the source gives them in different places. Each block holds one compound with its values, some of them ahead of it.

Experiments:
[1] = Stability of phthalyl amidase: effect of ionic strength and pH; format: physicochemical; conditions: 200 mM salt added to 20 mM buffer
Method: The stability of phthalyl amidase at pH values ranging from 6-9 was determined as described in Example 5 at 30° C. in both 20 and 200 mM potassium phosphate buffer. […] In 200 mM buffer, the enzyme retained at least 80% of its activity for 100 hours irrespective of the pH of the incubating medium.

phthalyl amidase [2] = target: T1, phthalyl amidase (Xanthobacter agilis, UniProt P0C2Y0); assay: Influence of effectors and organic solvents on phthalyl amidase activity; format: biochemical
Method: A typical reaction mixture consisted of 1 ml total volume and contained 0.1 mM III, 0.1 μM phthalyl amidase in 50 mM potassium phosphate buffer (pH 5.5-9.0) at 32° C. for 20 minutes. The reactions were stopped by the addition of 1 ml methanol. After removal of precipitate by centrifugation, an aliquot of the supernatant fraction (typically 30 μl) was monitored for the beta-lactam nucleus and phthalic acid by HPLC using a Zorbax C8 column (0.46×15 cm; MacMod Analytical Inc., Chadds Ford, Pa.). The two reaction products were eluted by a mobile phase constructed as continuous mixed gradients from (a) 1% ACN (acetonitrile)/0.2% TFA (trifluoroacetic acid) and (b) 80% ACN/0.2% TFA as follows: 1) 0% (b), 3min; 2) 0-50% (b), 0.5 min; 3) 50-100% (b), 3 min; 4) 100% (b), 2.5 min; 5) 100-1% (b), 0.1 min; and 6) 0% (b), 5 min.
The effect of various agents on the enzymatic activity of phthalyl amidase was determined using standard conditions (see Example 5). All agents were tested at 1 mM final concentration unless otherwise indicated.

phthalyl amidase [3] = target: T1, phthalyl amidase; assay: Chiral and additional substrate selectivity of phthalyl amidase (Table 13); format: biochemical; conditions: 30° C.; for Relative Activity: Table 13
Method: Several additional substrates were tested in a total volume of 1 ml. […] Reactions were stopped by the addition of methanol, and phthalic acid formation was monitored by HPLC.

phthalyl amidase [4] = target: T1, phthalyl amidase; assay: Substrate specificity of phthalyl amidase (Tables 9-11); format: biochemical; conditions: Table 9, beta-lactams; 30° C., pH 8.0
Method: the activity of phthalyl amidase against 25 compounds was determined. The compounds were divided into beta-lactams (Table 9), phthalyl amides (Table 10), and aromatic ring substituted amides (Table 11). Each reaction mixture (1 ml total volume) contained 2.5 μmol of compound and 0.3 units of enzyme (based on the chromogenic substrate) of the preparative scale purified enzyme, in 50 mM phosphate buffer, pH 8.0. The reactions were conducted at 30° C. Samples of the reaction mixture were taken at various times, and methanol (equal value) was added to stop the reaction. The samples were examined by HPLC to determine the extent of substrate hydrolysis. The amount of compound hydrolyzed was calculated from a standard curve of the test compound. All substrates were stable in buffer at 30° C. and pH 8.0 in the absence of enzyme for 24 hours.

phthalyl amidase [5] = target: T1, phthalyl amidase; assay: Kinetic parameters for phthalyl amidase; format: biochemical; conditions: Table 12; 32° C., pH 8.2
Method: The kinetic parameters of the enzyme were determined for several representative substrates. Compounds II, XVII, and XVIII were tested using 0.9 μg/ml of enzyme. Compounds III and XI were tested using 5.14 μg/ml of enzyme. Substrate concentrations were between 0 and 25 mM and reaction time was between 2 and 20 minutes, depending on the substrate used. All reactions were run at 32° C. and at pH 8.2. Km is the Michaelis constant for enzyme kinetics, Vmax is the maximal rate of reaction calculated by the Michaelis-Menten equation, and Kcat is the catalytic constant for an enzyme reaction.

phthalyl amidase [6] = target: T1, phthalyl amidase; assay: Preparative scale enzymatic hydrolysis to carbacephem nucleus; format: biochemical; conditions: 510 minutes, 30° C., pH 8.0, 80 units enzyme
Method: Thus, either compound XXXIII or III can be used to prepare the carbacephem nucleus (XXXIV). Substrate (5 grams) was added to 20 ml of deionized water and the pH of the solution was adjusted to 8.0 with concentrated ammonium hydroxide. Phthalyl amidase, 80 units as determined using the chromogenic substrate (II), was added to start the reaction. Temperature was maintained at 30° C. and the pH maintained at 8.0 by adding 2 N ammonium hydroxide. […] The pH of the reaction was lowered to 5.0 thereby precipitating the carbacephem nucleus. Isolated yields of the nucleus were between 65% and 77%. [drawing 26]

T1 sequence (P0C2Y0 2-453): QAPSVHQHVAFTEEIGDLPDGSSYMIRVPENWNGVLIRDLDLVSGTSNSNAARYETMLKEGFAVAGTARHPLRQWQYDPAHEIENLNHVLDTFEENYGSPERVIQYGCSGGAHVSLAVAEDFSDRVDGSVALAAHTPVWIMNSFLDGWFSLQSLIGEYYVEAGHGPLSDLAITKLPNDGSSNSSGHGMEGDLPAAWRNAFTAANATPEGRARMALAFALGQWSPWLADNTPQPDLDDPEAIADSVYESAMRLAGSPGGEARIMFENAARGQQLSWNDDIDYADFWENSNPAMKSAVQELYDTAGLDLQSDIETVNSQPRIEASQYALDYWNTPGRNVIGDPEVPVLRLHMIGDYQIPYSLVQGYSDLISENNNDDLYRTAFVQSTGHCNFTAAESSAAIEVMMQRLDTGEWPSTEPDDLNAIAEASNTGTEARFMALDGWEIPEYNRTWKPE

Structure (SMILES): [Cl-].[Na+] [NaCl, reference compound]
protection of enzyme against activity loss [1]: protected against activity loss | % of Control Activity (phthalyl amidase [2]): 104%

substrate preference (phthalyl amidase [3]): poor substrates for the enzyme | Relative Activity (phthalyl amidase [3]; run for a longer time period): 0.0
Structure (SMILES): O=C(Nc1ccccc1)c1ccccc1S(=O)(=O)O [XXXII]

Relative Activity (phthalyl amidase [4]): 100 | Km (phthalyl amidase [5]): 900 µM | Vmax (phthalyl amidase [5]): 7.6 μmol/sec/μmol | Relative Activity (phthalyl amidase [3]; 2 minutes): 100 | hydrolyzed (phthalyl amidase [6]): 90.0%
Structure (SMILES): O=C(O)C1=C(Cl)CCC2C(NC(=O)c3ccccc3C(=O)O)C(=O)N12 (centres unmarked) [III, 7-phthalamido-3-chloro-4-carboxy-1-carba-dethioceph-3-em]

substrate preference (phthalyl amidase [3]): twice that of compound III | Relative Activity (phthalyl amidase [3]; 2 minutes): 200
Structure (SMILES): O=C(O)c1ccccc1C(=O)Nc1ccccc1 [Compound XXXI]

hydrolyzed (phthalyl amidase [6]): 98%
Structure (SMILES): O=C(O)C1=C(Cl)CCC2C(N3C(=O)c4ccccc4C3=O)C(=O)N12 (centres unmarked) [XXXIII, Phthalimido carbacephem]

Structure (SMILES): [Cl-].[K+] [KCl, reference compound]
protection of enzyme against activity loss [1]: protected against activity loss | % of Control Activity (phthalyl amidase [2]; 1 mM agent): 100%

substrate preference (phthalyl amidase [3]): poor substrates for the enzyme | substrate preference (phthalyl amidase [3]; listed as L isomer): extremely poor substrate | Relative Activity (phthalyl amidase [3]; run for a longer time period): 1.3
Structure (SMILES): O=C(O)c1ccccc1C(=O)N[C@H](C(=O)O)c1ccccc1 [Compound XXX, N-phthalyl-phenylglycine]
